The values that follow come from US20010044445A1, “AZOLE INHIBITORS OF CYTOKINE PRODUCTION” (priority 1999, published 2001).

The subject of series [1] is Human peripheral blood mononuclear cells. The experiment in a line: Human Concanavalin-A Proliferation Assay (Con HU Assay). To be noted: Homo sapiens, PBMC, concanavalin-A stimulated human PBMC; for IC50: tritiated thymidine; for inhibition at 10 µM / inhibition at 100 µM / inhibition at 1 µM: 72 h, 3 days, read-out: % Inhibition of proliferation (at concentrations of 1,10, or 100 μm); for inhibition at 10 µM: concentration 10 μm (in parentheses in the cell); for inhibition at 100 µM: concentration 100 μm (in parentheses in the cell); for inhibition at 1 µM: concentration 1 μm (in parentheses in the cell). Format: cell-based. The essentials:
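Histopaque-isolated human PBMC (50,000/well) were pre-incubated 15 min with compounds, then stimulated with concanavalin-A at 2.5 μg/ml final for 3 days at 37 °C, 5% CO2. Proliferation measured by 6 h pulse with 0.5 μCi/well [3H]thymidine and beta counting.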

For orientation: IC50 means the concentration that gives 50% inhibition. A lower IC50 goes with greater potency. As usually defined, the melting point is the temperature, or range, at which the solid turns liquid. Turning to `O=C(Nc1ccc(-n2nc(C(F)(F)F)cc2Br)cc1)c1ccncc1Cl` [Example 349, N-(4-(5-bromo-3-(trifluoromethyl)-1H-pyrazol-1-yl)phenyl)-3-chloroisonicotinamide], the melting point was 79 to 82 °C. This molecule registered an IC50 in series [1] of 224 nM.

For the molecule `O=C(Nc1ccc(-n2nc(C(F)(F)F)cc2C(F)(F)F)cc1)c1ccc(Cl)s1` [Example 253, N-[4-[3,5-bis(trifluoromethyl)-1H-pyrazol-1-yl]phenyl]-5-chloro-2-thiophenecarboxamide], the melting point lay within 182 to 184 °C. In addition, in series [1], the inhibition at 10 µM was found to be 94% and the IC50 is 447 nM.

`Cc1nnsc1C(=O)Nc1ccc(-n2nc(C(F)(F)F)cc2C)cc1` [Example 282, 4-methyl-N-[4-[5-methyl-3-(trifluoromethyl)-1H-pyrazol-1-yl]phenyl]-1,2,3-thiadiazole-5-carboxamide] displayed a melting point of 51 to 53 °C. Further, in series [1], the inhibition at 100 µM turned out to be 100% and the IC50 came to 248 nM.

Take `O=C(Nc1ccc(-n2nc(C(F)(F)F)cc2C(F)(F)F)cc1)c1ccc(O)c(O)c1` [Example 181, N-[4-[3,5-bis(trifluoromethyl)-1H-pyrazol-1-yl]phenyl]-3,4-dihydroxybenzamide]: the melting point fell in the range of 233 to 235 °C. For the same molecule, in series [1], the inhibition at 10 µM amounted to 100% and the IC50 was 2240 nM.

`COc1ccccc1C(=O)Nc1ccc(-n2nc(C(F)(F)F)cc2C(F)(F)F)cc1` [Example 143, N-[4-[3,5-bis(trifluoromethyl)-1H-pyrazol-1-yl]phenyl]-2-methoxybenzamide] yielded a melting point of 100 to 102 °C. Also, in series [1], the inhibition at 100 µM was 100% and half-maximal inhibition (IC50) was put at 1680 nM.

In turn, `N#Cc1cccc(NC(=O)Nc2ccc(-n3nc(C(F)(F)F)cc3C(F)(F)F)cc2)c1` [Example 16, N-[4-[3,5-bis(trifluoromethyl)-1H-pyrazol-1-yl]phenyl]-N′-(3-cyanophenyl)urea] registered a melting point of 204 to 205 °C. Besides, in series [1], the inhibition at 100 µM worked out at 100% and half-maximal inhibition (IC50) was put at 4190 nM.

Consider `Cc1ccccc1C(=O)Nc1ccc(-n2nc(C(F)(F)F)cc2C(F)(F)F)cc1` [Example 96, N-[4-[3,5-bis(trifluoromethyl)-1H-pyrazol-1-yl]phenyl]-2-methylbenzamide], for which the melting point lay in the range of 165 to 167 °C. Besides, in series [1], the inhibition at 100 µM amounted to 99% and half-maximal inhibition (IC50) required 338 nM.

`Cc1cc(-n2nc(C(F)(F)F)cc2C(F)(F)F)ccc1NC(=O)c1snnc1C` [Example 279, N-[4-[3,5-bis(trifluoromethyl)-1H-pyrazol-1-yl]-2-methylphenyl]-4-methyl-1,2,3-thiadiazole-5-carboxamide] registered a melting point of 196 to 197 °C. Also, the inhibition at 1 µM in series [1] turned out to be 6%.

For `O=C(Nc1ccc(-n2nc(C(F)(F)F)cc2C(F)(F)F)cc1)c1ccccc1C(=O)c1ccccc1` [Example 22, 2-Benzoyl-N-[4-[3,5-bis(trifluoromethyl)-1H-pyrazol-1-yl]phenyl]benzamide], the melting point fell in the range of 204 to 205 °C. Also, the inhibition at 1 µM in series [1] was determined as 14%.

For the molecule `O=C(Nc1ccc(-n2nc(C(F)(F)F)cc2C(F)(F)F)cc1)c1ccc(Br)cc1` [Example 85, N-[4-[3,5-bis(trifluoromethyl)-1H-pyrazol-1-yl]phenyl]-4-bromobenzamide], the melting point lay in the range of 205 to 207 °C. Besides, in series [1], the inhibition at 100 µM was determined as 93% and the IC50 is 275 nM.

On to `Cc1nnsc1C(=O)Nc1ccc(-n2nc(C(F)(F)F)cc2Br)cc1` [Example 335, N-(4-(5-bromo-3-(trifluoromethyl)-1H-pyrazol-1-yl)phenyl)-4-methyl-1,2,3-thiadiazole-5-carboxamide], for which the melting point lay within 145 to 147 °C. Besides, in series [1], the IC50 was determined as 103 nM.

Consider `COC(=O)c1cccc(C(=O)Nc2ccc(-n3nc(C(F)(F)F)cc3C(F)(F)F)cc2)c1` [Example 129, Methyl 3-[[[4-[3,5-bis(trifluoromethyl)-1H-pyrazol-1-yl]phenyl]amino]carbonyl]benzoate], for which the melting point fell in the range of 174 to 175 °C. Besides, in series [1], the inhibition at 100 µM was found to be 100% and inhibition was half-maximal at 380 nM (IC50).

Take `O=C(Nc1ccc(-n2nc(C(F)(F)F)cc2C(F)(F)F)cc1)Nc1ccc(Cl)c([N+](=O)[O-])c1` [Example 79, N-[4-[3,5-bis(trifluoromethyl)-1H-pyrazol-1-yl]phenyl]-N′-(4-chloro-3-nitrophenyl)urea]: the melting point lay within 207 to 209 °C. In series [1], the inhibition at 1 µM turned out to be 9%.

On to `O=C(Nc1ccc(-n2nc(C(F)(F)F)cc2C(F)(F)F)cc1)c1ccc(O)c([N+](=O)[O-])c1` [Example 180, N-[4-[3,5-bis(trifluoromethyl)-1H-pyrazol-1-yl]phenyl]-4-hydroxy-3-nitrobenzamide], for which the melting point lay in the range of 193 to 194 °C. Further, in series [1], the inhibition at 10 µM stood at 95% and the IC50 was 2870 nM.

Consider `O=C(Nc1ccc(-n2nc(C(F)(F)F)cc2C(F)(F)F)cc1)c1ccc(F)c([N+](=O)[O-])c1` [Example 200, N-[4-[3,5-bis(trifluoromethyl)-1H-pyrazol-1-yl]phenyl]-4-fluoro-3-nitrobenzamide], for which the melting point lay within 186 to 187 °C. In series [1], the inhibition at 1 µM was determined as 26%.

`O=C(CCCl)Nc1ccc(-n2nc(C(F)(F)F)cc2C(F)(F)F)cc1` [Example 70, N-[4-[3,5-bis(trifluoromethyl)-1H-pyrazol-1-yl]phenyl]-3-chloropropanamide] yielded a melting point of 144 to 145 °C. Moreover, in series [1], the inhibition at 100 µM worked out at 100% and the IC50 amounted to 913 nM.

The molecule `O=C(Nc1ccc(F)cc1F)c1ccc(-n2nc(C(F)(F)F)cc2C(F)(F)F)cc1` [Example 187, 4-[3,5-Bis(trifluoromethyl)-1H-pyrazol-1-yl]-N-(2,4-difluorophenyl)benzamide] came in with a melting point of 176 to 177 °C. In series [1], the inhibition at 1 µM was 86% and the IC50 came to 362 nM.

As for `Cc1nc(C)n(-c2ccc(NC(=O)c3c(C)noc3C)cc2)n1` [Example 189, 3,5-dimethyl-N-[4-(3,5-dimethyl-1H-1,2,4-triazol-1-yl)phenyl]-4-isoxazolecarboxamide], the melting point is 170 to 171 °C. Besides, the inhibition at 1 µM in series [1] stood at 24%.

The molecule `O=C(Nc1ccc(-n2nc(C(F)(F)F)cc2Cl)cc1)c1ccncc1Cl` [Example 346, 3-chloro-N-(4-(5-chloro-3-(trifluoromethyl)-1H-pyrazol-1-yl)phenyl)isonicotinamide] came in with a melting point of 184 to 185 °C. Also, in series [1], it took 117 nM to reach half-maximal inhibition (IC50).

For `Cc1ccc(C(=O)Nc2ccc(-n3nc(C(F)(F)F)cc3C(F)(F)F)cc2)cc1` [Example 100, N-[4-[3,5-bis (trifluoromethyl)-1H-pyrazol-1-yl]phenyl]-4-methylbenzamide], the melting point lay within 225 to 226 °C. For the same molecule, in series [1], the inhibition at 100 µM turned out to be 75% and the concentration for half-maximal inhibition (IC50) is 2150 nM.

For `O=C(Nc1ccc(-n2nc(C(F)(F)F)cc2C(F)(F)F)cc1)c1ccc(O)cc1` [Example 73, N-[4-[3,5-bis(trifluoromethyl)-1H-pyrazol-1-yl]phenyl]-4-hydroxybenzamide], the melting point was over 245 °C. In addition, in series [1], the inhibition at 10 µM came out at 93% and the IC50 stood at 388 nM.
